According to patent US20050272677A1, “Delivery of a substance to a pre-determined site” (priority 2002, published 2005):

Legend:
[1] = In vivo delivery of radio-labeled myoglobin with Sunfish/co-lipid complexes
Experimental: The low molecular-weight protein myoglobin was chosen as the model protein, the molecular weight is 17.8 kDa and iso-electric point 7.3. To enable quantification of organ uptake of myoglobin, myoglobin was radio-labeled with ^125Iodine-tyramine-cellobiose that is retained within the cell in which it is internalized.
The complexation was performed by mixing 3.5 μg of myoglobin in Tricine buffer (pH 8.5) with 75 nmol liposomes consisting of Sunfish and co-lipid in a molar ratio of 1:1 in 5% glucose solution.
Study 2: For complexation, SF-30, in combination with cholesterol in a molar ratio of 1:1, was used. […]
Study 2: BALB/c mice were injected intravenously with ^125Iodine-tyramine-cellobiose-labeled myoglobin complexed with different PEGylated lipid formulations. The mice were sacrificed after 10, 30 or 120 minutes following injection and the body distribution of ^125Iodine was determined. […]
The organ uptake is expressed as the percentage of injected dose ^125Iodine (tyramine-cellobiose) radioactivity. […] The total percentage of radioactivity in the blood was determined by multiplying the percentage per milliliter blood by 0.073 times the body weight in grams, being the total blood volume of the mouse. To allow an accurate comparison, the ratio between radioactivity in total blood and reticuloendothelial system (RES=liver+spleen) was expressed. […]

MscL = MscL (Escherichia coli, UniProt P0A742, G22C); type: biochemical, E. coli; parameters: made in house; host or cells: E. coli PB104; settings: G22C in DOPC:DOPS liposomes; 2.5 mM MTSEA, 10 mM MTSES
Experimental: Results Overexpression and Purification of the MscL Channel Protein
Samples were prepared and calcein efflux was monitored as described elsewhere in Example 1.
300 μl of detergent-treated liposomes were gently mixed with 240 μl of 0.25 mg/ml purified MscL-mutant G22C in elution buffer containing 0.2% Triton X-100. The mixture was incubated at 60° C. for 45 minutes, followed by the addition of an equal volume (540 μl) of calcein-loading buffer, containing 200 mM calcein, 25 mM Tris, 1 mM EDTA, pH 8.0. After addition of 20 mg of Triton X-100-absorbing Bio-Beads SM-2, the mixture was gently agitated for one hour at room temperature. Subsequently, 80 mg Bio-Beads were added and incubated at 4° C. overnight under mild agitation. Samples were prepared for calcein efflux assay as described elsewhere.

[2] = Release of quinolines from DBC gels by UV-Vis spectroscopy; type: physicochemical; settings: into 1 mL PBS pH 7.4, initial 0.001M
Excerpt: Entrapment of 8-aminoquinoline and 2-hydroxyquinoline (FIG. 61) was achieved by adding a PBS (phosphate-buffered saline) pH 7.4 solution of the quinoline of interest to X mg of DBC (dibenzoyl cystine); X=2, 3.5, 5 or 10, depending on the weight percentage (wt %) of gelator desired. The sample was then heated in a closed vial until complete dissolution of DBC was observed and subsequently allowed to cool to room temperature where gelation of the sample and, thus, entrapment of the quinolines in the gel occured.
After 24 hours, percentages of 8-aminoquinoline and 2-hydroxyquinoline released from DBC gels of different weight percentages into 1mL of PBS solution at pH 7.4 in contact with the gel, were measured by UV-Vis spectroscopy and are reported in Table J. The initial quinoline concentration in the gel was 0.001M. The error on each percentage is ±4%.

[3] = Gelation experiment (gel formation in solvents); type: physicochemical
Experimental: To obtain a gel or to thicken the solvent, the compound is mixed with the required solvent or a mixture of solvents in an amount between 0.01 and 50 wt. %, based on the weight of the composition. Typically, the dissolution of the components will be performed by heating (in some cases it may be helpful to homogenize the components, e.g., vortex) them together at temperatures of 20° C. to 200° C., preferably 50° C. to 150° C. Cooling these hot solutions to a preferred temperature in the range of −20° C. to 100° C., preferably 4° C. to 100° C. affords the gel or thickened solvent. […] In an alternative embodiment, the gelling agent is first dissolved in a polar or apolar solvent followed by the addition of another solvent or solvent mixture, thereby causing gelation to take place.
It will be understood that the use of the present gelling agents or thickeners to prepare a gel or to thicken a composition is also encompassed by the invention. As is well-known, gelling behavior of compounds or compositions is highly unpredictable. […] Preferably, the gelling phenomenon is thermoreversible.
(§1) In a typical gelation experiment, a carefully weighed amount of the dithienylcyclopentene derivative under investigation and 1 ml of the solvent are placed in a test tube, which is sealed and then heated until the compound is dissolved. The solution is allowed to cool to room temperature. […] The gelation process could be followed by UV-vis and CD spectroscopy as depicted in FIG. 58. At low concentrations (0.35 mM), compound D is dissolved in toluene. […] Increasing the concentration to 1.8 mM causes gelation of the solvent, which is accompanied by a change of the UV-visible spectrum, together with the appearance of a strong CD signal at 323 nm (FIG. 58, panels (a) and (c)). Similar changes in the UV-vis and CD spectrum are observed upon gelation of the 1.8 mM solution of D in toluene by cooling to a temperature below the sol-gel phase transition (from here on, referred to as gel(o)). From a plot of the increase of the CD signal versus the temperature, the sol-gel phase transition temperature of gel(o) was determined to be 29° C. for a 1.8 mM solution of D in toluene.

[4] = Sol-gel phase transition temperature and photo-switching by CD spectroscopy; type: physicochemical
Experimental: as §1
In a typical photo-switching experiment, a solution (1.8 mM) of Compound D in toluene was prepared by cooling from 70° C. to the desired temperature (typically between 30° C. and 60° C., i.e., above the gel-sol phase transition temperature of the open form of D) in a cuvette of 1 mm path length. This solution was then irradiated at λ1=313 nm to convert the ring-open form of Compound D to the ring-closed form. By using a 150 W Xe lamp and a 313 nm bandpass filter, the photo-stationary state (PSS) was reached, typically within 10 minutes, which consist of 60 mol % of the closed form and 40 mol % of the open form.

[5] = Gelation in the presence of surfactants and polymeric micelles; type: physicochemical; parameters: key: G = gel; C = crystalline; G^a: ^a= not stable
[6] = as above; type: physicochemical; parameters: key: g = gel; i = insoluble; p = precipitate; sol = soluble
[7] = Urinary excretion of IOT after subcutaneous injection; type: in vivo, rat; settings: conscious rats
Experimental: DOPC/DOPS (90:10, mol/mol) and DOPC/DOPE liposomes (70:30, mol/mol) liposomes were tested.
Male Wistar rats remained conscious throughout the study. To increase the time-resolution, the diuretic furosemide (10 mg/kg dose s.c) was given in the morning, seven hours before administration of the sample. Urine was collected automatically with a one hour resolution. The concentration of IOT in the urine was measured by HPLC.

[8] = Subcutaneous pH reduction by MES buffer; type: in vivo, rat; settings: pH 6.1, 0.5 ml s.c.
Experimental: Male Wistar rats remained conscious throughout the study. The subcutaneous pH was constantly recorded using a micro-glass electrode. After stabilization of the pH, 0.5 ml MES buffer (pH 6.1) was injected approximately 3 mm from the pH electrode. The effect of different molarities (50, 100 and 250 mM) of the MES buffer on the time-course of pH reduction was tested.

α-chymotrypsin = α-chymotrypsin (Bos taurus, UniProt P00766); assay: Cleavage of prodrug-gelling agent conjugate by α-chymotrypsin in gel and solution; type: biochemical
Experimental: The prodrug has been mixed with several gelators (neutral: C3-Am-Meth-Am-CH2CH2OCH2CH2OH as well as ionizable: DBC and C3-Am-Meth-OH) and stabile gels were obtained (0.25 wt % of the prodrug and 0.5 wt % of the gelator). […] This difference could be observed with the naked eye: after 20 minutes, the solution containing the prodrug turned bright yellow (due to the release of nitroaniline, whereas the gel containing the prodrug turned slightly yellow only after 20 hours.

[9] = Urinary excretion of MAG3 after subcutaneous or intravenous injection; settings: free compound
Experimental: The effect of drug formulation on the rate of drug release in vivo was tested in the rat by external counting of radioactivity.
DOPC/DOPS (90:10, mol/mol) liposomes with or without the MscL-mutant G22C were used (protein-to-lipid ratio of 1:20, wt/wt).
Encapsulation of MAG3 in liposomes was performed by freezing/thawing three times followed by extrusion through a 400 nm filter. The free fraction of the compound was removed by G50 Sephadex column separation.
The normal liposomes were loaded with MAG3 in 0.9% NaCl and eluted on the G50 column with 25 mM HEPES pH 8, 150 mM NaCl.
Male Wistar rats were anaesthetized using iso-flurane O2/NO throughout the study. Liposome-encapsulated MAG3 in a 0.5 ml volume was injected subcutaneously (in the neck) and accumulation of radioactivity in the urinary bladder constantly monitored by external counting using a gamma-camera (window: 140 keV, 250 keV width, one minute time resolution). At the end of the study (after 40 minutes), a ten times higher dose of free MAG3 was administered subcutaneously or intravenously to measure the urinary excretion rates of those formulations.

MscL, sequence (P0A742 whole entry G22C): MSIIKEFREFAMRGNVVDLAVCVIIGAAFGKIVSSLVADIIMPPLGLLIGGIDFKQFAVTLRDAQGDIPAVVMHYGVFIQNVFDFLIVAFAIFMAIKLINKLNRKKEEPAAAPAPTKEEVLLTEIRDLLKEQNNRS

## 1-(polyethyleneglycol5000-ω-methylether)-4-(10′-cis-nonadecenyl)pyridinium Bromide [SF-79]
[1]; 30 minutes after administration, complex containing 20% SF-79
  blood/RES ratio: one
[1]; 120 minutes after injection, PEGylated complexes
  circulation time / radioactivity in the blood: the highest amount of radioactivity in the blood

## 2-aminoethyl methanethiosulfonate [MTSEA, reference compound]
MscL
  calcein release upon addition of MTS compound, versus MTSET: the kinetics of release are significantly slower

## Oc1ccc2ccccc2n1 [2-hydroxyquinoline]
[2]; DBC 0.35 wt %
  percentage released from DBC gel after 24 hours: 38%
[2]; DBC 0.5 wt %
  percentage released from DBC gel after 24 hours: 37%
[2]; DBC 1.0 wt %
  percentage released from DBC gel after 24 hours: 36%

## Nc1cccc2cccnc12 [8-aminoquinoline]
[2]; DBC 0.35 wt %
  percentage released from DBC gel after 24 hours: 15%
[2]; DBC 0.5 wt %
  percentage released from DBC gel after 24 hours: 12%
[2]; DBC 1.0 wt %
  percentage released from DBC gel after 24 hours: 10%

## Cc1sc(C(=O)N[C@H](C)c2ccccc2)cc1C1=C(c2cc(C(=O)N[C@H](C)c3ccccc3)sc2C)CCC1 [Compound D, 1,2-Bis(2′-methyl-5′-{(((R)-1-phenylethyl)amino)carbonyl}thien-3′-yl)cyclopentene]
[3]
  solvents gelated: cyclohexane, 1-phenyloctane, toluene, n-butylether, benzene, tetralin
[4]; 1.8 mM in toluene, after irradiation at 313 nm (PSS)
  sol-gel phase transition temperature of gel(c,I): 62 °C
[4]; 1.8 mM in toluene, open form
  sol-gel phase transition temperature of gel(o): 29 °C
[4]; gel(c,I)
  increase of thermal stability compared to gel(o): more than 30 °C

## O=C(N[C@@H](CSSC[C@H](NC(=O)c1ccccc1)C(=O)O)C(=O)O)c1ccccc1 [DBC, dibenzoyl-L-cystine, reference compound]
1 wt % gel, tris-(2-carboxy ethyl)phosphine
  response of gel to reducing agent: gel-to-sol transition
D-glucose, glucose oxidase, catalase, NaHCO3, after three days
  gelation by pH decrease through D-gluconic acid formation: completely gelified
[5]; CTAB < CMC, * pH reversible gelation
  Gelation properties: G
[5]; CTAB < CMC, ** pH reversible then thermoreversible gelation
  Gelation properties: G
[5]; CTAB > CMC, * pH reversible gelation
  Gelation properties: G
[5]; CTAB > CMC, ** pH reversible then thermoreversible gelation
  Gelation properties: G
[5]; Lactose der. < CMC, * pH reversible gelation
  Gelation properties: G
[5]; Lactose der. < CMC, ** pH reversible then thermoreversible gelation
  Gelation properties: G
[5]; Lactose der. > CMC, * pH reversible gelation
  Gelation properties: G
[5]; Lactose der. > CMC, ** pH reversible then thermoreversible gelation
  Gelation properties: G
[5]; Nonionic (Lactose der.) < CMC
  Gelation properties: G
[5]; Nonionic (Lactose der.) > CMC
  Gelation properties: G
[5]; Pluronic P 105, 100 mg · ml^−1
  Gelation properties: g^a
[5]; SDS < CMC, * pH reversible gelation
  Gelation properties: G
[5]; SDS < CMC, ** pH reversible then thermoreversible gelation
  Gelation properties: G
[5]; SDS > CMC, * pH reversible gelation
  Gelation properties: G
[5]; SDS > CMC, ** pH reversible then thermoreversible gelation
  Gelation properties: G
[5]; anionic (SDS) < CMC
  Gelation properties: G
[5]; anionic (SDS) > CMC
  Gelation properties: G
[5]; cationic (CTAB) < CMC
  Gelation properties: G
[5]; cationic (CTAB) > CMC
  Gelation properties: C
[6]; Pluronic P 105, 5 mg · ml^−1
  Gelation properties: g
[6]; Pluronic P 105, 5 mg · ml^−1, * pH reversible gelation
  Gelation properties: g
[6]; Pluronic P 105, 5 mg · ml^−1, ** pH reversible then thermoreversible gelation
  Gelation properties: g
[6]; Pluronic P 105, 100 mg · ml^−1, * pH reversible gelation
  Gelation properties: g
[6]; Pluronic P 105, 100 mg · ml^−1, ** pH reversible then thermoreversible gelation
  Gelation properties: g

## CNC(=O)c1c(I)c(NC(C)=O)c(I)c(C(=O)O)c1I [IOT, Iodo-thalamate]
[7]
  urinary excretion of IOT after subcutaneous injection: completed in the first couple of hours after injection

## O=S(=O)(O)CCN1CCOCC1 [MES]
[8]; 50 mM
  time for subcutaneous pH to return to pH 7.4: ten
[8]; 100 mM
  time for subcutaneous pH to return to pH 7.4: ten
[8]; 250 mM
  time pH remained below pH 6.5: more than 30 minutes

## CHex(AmEtOEtOH)2(AmPhe-pNA) [compound 16]
α-chymotrypsin; 0.25 wt % prodrug in mixed gel, 0.5 wt % gelator
  time until gel turned slightly yellow (release of nitroaniline): 20 h
α-chymotrypsin; prodrug in solution layered with α-chymotrypsin
  time until solution turned bright yellow (release of nitroaniline): 20 min

## mertiatide [MAG3]
[9]; intravenous
  time to 50% urinary excretion: 3 min
[9]; subcutaneous
  time to 50% urinary excretion: > 12 min

## sodium (2-sulfonatoethyl)methane thiosulfonate [MTSES, reference compound]
MscL
  calcein release upon addition of MTS compound, versus MTSET: the kinetics of release are significantly slower
